Source: US20220202811A1, “TREATMENT FOR RETINOIC ACID RECEPTOR-RELATED ORPHAN RECEPTOR Ɣ (RORƔ)-DEPENDENT CANCERS” (The Regents of the University of California, priority 2019, published 2022)
“Also recorded” adds a separate entry of the source.

Legend:
KP^f/fC organoids = assay: KP^f/fC organoid culture assay; format: cell-based, mouse
Experimental: Organoids from REM2-KP^f/fC were passaged at ˜1:2 as previously described (Boj et al., 2015). Briefly, organoids were isolated using Cell Recovery Solution (Corning 354253), then dissociated using Accumax Cell Dissociation Solution (Innovative Cell Technologies AM105), and plated in 20 μl matrigel (BD Biosciences, 354230) domes on a pre-warmed 48-well plate. After incubation at 37° C. for 5 min, domes were covered with 300 μl PancreaCult Organoid Growth Media (Stemcell Technologies). […] Organoids were grown in the presence of vehicle or SR2211 for 4 days, then imaged and quantified, n=3 independent wells plated per dose per treatment group.
KP^f/fC organoid were derived from the REM2-KP^f/fC mice, a germline genetically engineered mouse model for pancreatic ductal adenocarcinoma with the genotype of Msi2^eGFP/Kras^LSL-G12D/+; Pdx^CRE/+; p53^f/f. Briefly, tumors from 10-12-week-old end-stage REM2-KP^f/fC mice were harvested and dissociated into a single cell suspension. Tumor cells were stained with FC block then 0.2 μg/10^6 cells anti-EpCAM APC (eBioscience). REM2+/EpCAM+ (stem) and REM2−/EpCAM+ (non-stem) cells were sorted, resuspended in 20 μl Matrigel (BD Biosciences, 354230), and plated as a dome in a pre-warmed 48-well plate. After incubation at 37° C. for 5 min, domes were covered with 300 μl PancreaCult Organoid Growth Media (Stemcell Technologies). Organoids were imaged and quantified 6 days later. All images were acquired on a Zeiss Axiovert 40 CFL. Organoids were counted and measured using ImageJ 1.51s software.
The derived KP^f/fC organoid were maintained and passaged at ˜1:2. Briefly, organoids were isolated using Cell Recovery Solution (Corning 354253), then dissociated using Accumax Cell Dissociation Solution (Innovative Cell Technologies AM105), and plated in 20 μl Matrigel (BD Biosciences, 354230) domes on a pre-warmed 48-well plate. After incubation at 37° C. for 5 min, domes were covered with 300 μl PancreaCult Organoid Growth Media (Stemcell Technologies).
About 4,000 organoids from each of the non-germline and germline mouse models were plated as single cells in multi-well plates, as described above, and treated with JTE-151 for 4 days (FIG. 48). Organoid number and size were analyzed after treatment. […] In the quantification, different doses of JTE-151 were plotted along the horizontal axis, and the volume of organoids was expressed as relative to control along the vertical axis. […] Organoid volume was then analyzed. Different doses of JTE-151 were plotted along the horizontal axis, and the vertical axis represents relative organoid volume to control.

[1] = test system: primary patient-derived PDX1535 organoids; assay: PDX1535 organoid assay; format: cell-based, human
Experimental: PDX1535 organoids were derived from a patient of pancreatic cancer. Primary patient organoids were established by digesting patient-derived xenografts for 1 hour at 37° C. in RPMI containing 2.5% FBS, 5 mg/ml Collagenase II, and 1.25 mg/ml Dispase II, followed by passage through a […] mesh filter. Cells were plated at a density of 1.5×10^5 cells per 50 μl Matrigel. After domes were solidified, growth medium was added as follows: RPMI containing 50% Wnt3a conditioned media, 10% RSpondin1-conditioned media, 2.5% FBS, 50 ng/ml EGF, 5 mg/ml Insulin, 12.5 ng/ml hydrocortisone, and 14 μM Rho Kinase Inhibitor. After establishment, organoids were passaged and maintained. Briefly, organoids were isolated using Cell Recovery Solution (Corning 354253), then dissociated into single cell suspension with TrypLE Express (ThermoFisher 12604) supplemented with 25 μg/ml DNase I (Roche) and 14 μM Rho Kinase Inhibitor (Y-27632, Sigma). Cells were split 1:2 into 20 μl domes plated on pre-warmed 48-well plates. Domes were incubated at 37° C. for 5 min, then covered with human complete organoid feeding media without Wnt3a-conditioned media. […] The organoids were imaged and measured at the end of treatment. […] Moreover, the anti-cancer effect of JTE-151 was determined in an organoid assay using pancreatic cancer cells derived from mice bearing primary patient-derived xenografts.

[2] = test system: primary patient-derived organoids; assay: compilation of primary patient-derived organoids; format: cell-based, human
[3] = test system: primary patient-derived PDX1424 cancer cells; assay: PDX1424 xenografts in mice; format: in vivo, human
From the text: FIG. 45 is a compilation of all data from mice bearing PDX or FG cancer xenographs, including PDX1424, PDX1444, and FG.
Finally, the impact of JTE-151 was examined in vivo on mice bearing primary patient-derived pancreatic cancer xenografts (FIGS. 70-78). […] FIGS. 70-72 show 3 rounds of treatment in an experiment using mice bearing PDX1356 xenographs. The horizontal axis of the first panel in each of FIGS. 70-72 represents days of treatment, and the vertical axis represents tumor volume. The horizontal axis of each of the remaining panels represents the target (vehicle vs. JTE-151 mouse), and the vertical axis represents the specified measurement. JTE-151 was given at the regimen as specified in the figures. For example, in the first round (FIG. 70), JTE-151 was given at 90 mg/kg body weight once per day for the first 25 days, then twice per day from day 26 though day 40.
Two other primary patient-derived xenografts, PDX1535 (FIGS. 74 and 75) and PDX1424 (FIGS. 76 and 77), were tested using JTE-151 at 90 mg/kg once per day. […] Considering the reduced tumor mass and cell numbers, the absence of a significant change in tumor volume may be due to necrotic cells that remained for a while post drug treatment.

[4] = test system: tumor-bearing KP^f/fC mice; assay: tumor-bearing KP^f/fC mice in vivo (AZD-0284, JTE-151); set-up: species or system mouse
[5] = 3 μM AZD-0284 + 0.025 nM gemcitabine
[6] = 6 μM AZD-0284 + 0.025 nM gemcitabine
[7] = 12 μM AZD-0284 + 0.025 nM gemcitabine
[8] = AZD-0284 90 mg/kg once daily + gemcitabine 25 mg/kg once weekly, 3 weeks
[9] = 30 mg/kg JTE-151 once daily for about 3 weeks (FIG. 52)
[10] = 90 mg/kg JTE-151, 3 weeks, compilation (FIG. 57)
[11] = 90 mg/kg JTE-151, 3 weeks, individual experiments (FIGS. 53-55)
[12] = JTE-151 at either 30 mg/kg or 90 mg/kg, 3 weeks (FIG. 58)

With `CC(=O)N1Cc2cc(S(C)(=O)=O)ccc2[C@@H]1C(=O)Nc1ccc(C(O)(C(F)(F)F)C(F)(F)F)cc1` [AZD-0284] the “decrease in organoid volume compared to control” value (from here on “decrease in organoid volume”) (KP^f/fC organoids; [5]) was 3.72 fold, the “organoid growth in volume” value (KP^f/fC organoids; 3 μM AZD-0284 in combination with 0.02 nM gemcitabine) was “visibly decreased; also recorded: inhibited” and the “decrease in organoid volume” value (KP^f/fC organoids; [6]) was 5.81 fold. For the same molecule, the organoid volume (KP^f/fC organoids; 6 μM AZD-0284 alone) was “visibly reduced; also recorded: inhibited”, the organoid volume (KP^f/fC organoids; 6 μM AZD-0284 and 0.025 nM gemcitabine combination) was “visibly reduced; also recorded: inhibited” and the “decrease in organoid volume” value (KP^f/fC organoids; [7]) was 10.53 fold. For the same molecule, the organoid growth (KP^f/fC organoids; AZD-0284 alone, 6 μM or 12 μM (FIG. 32)) was “significant inhibitory effect”, the “decrease in organoid volume” value [1, 5] was 2.81 fold and the organoid volume ([1]; 3 μM AZD-0284 and 0.04 nM gemcitabine) was “significant reduction; also recorded: significant inhibition”. The “decrease in organoid volume” value [1, 6] was 4.72 fold, the organoid growth ([1]; 6 μM AZD-0284 alone) was “visibly inhibited” and the organoid growth ([1]; 6 μM AZD-0284 in combination with 0.025 nM gemcitabine) was “visibly inhibited”. For the same molecule, the “decrease in organoid volume” value [1, 7] was 6.90 fold, the organoid volume ([1]; AZD-0284 alone, 6 μM or 12 μM (FIG. 37)) was “significantly reduced” and the organoid growth ([2]; AZD-0284 at 3 μM and more so at 6 μM, PDX1356 and PDX1535 (FIG. 40)) was “significantly inhibited”. For the same molecule, the “EpCam+ tumor epithelial cells” value ([3]; 60 mg/kg AZD-0284 for 3 weeks) was “significant reduction”, the “EpCam+/CD133+ tumor stem cells” value ([3]; 60 mg/kg AZD-0284 for 3 weeks) was “significant reduction” and the “EpCam+ tumor epithelial cells” value ([4]; 90 mg/kg AZD-0284 alone) was “loss”. For the same molecule, the “EpCam+/CD133+ tumor stem cells” value ([4]; 90 mg/kg AZD-0284 alone) was “loss”, the cell number ([4]; 90 mg/kg AZD-0284 alone) was “lower” and the tumor mass ([4]; 90 mg/kg AZD-0284 alone) was “lower”. For the same molecule, the “EpCam+ tumor epithelial cells” value [4, 8] was “loss”, the “EpCam+/CD133+ tumor stem cells” value [4, 8] was “loss” and the cell number [4, 8] was “lower”.
In the case of `Cc1ccc(NC(=O)C[C@H](CCC(=O)O)c2noc([C@H]3C[C@@H](CC(C)(C)C)C3)c2C2CC2)c(Cl)c1` [JTE-151, (4S)-6-[(2-chloro-4-methylphenyl)amino]-4-{4-cyclopropyl-5-[cis-3-(2,2-dimethylpropyl)cyclobutyl]isoxazol-3-yl}-6-oxohexanoic acid], the organoid volume (KP^f/fC organoids; JTE-151 at 0.003 μM and 0.03 μM) is reported as “reduced organoid volume, although not at a statistically significant level”, the organoid growth (KP^f/fC organoids; JTE-151 at 0.3 μM, 3 μM, 6 μM, and 9 μM) is reported as “significantly inhibited” and the organoid volume ([1]; 3 μM JTE-151 alone (FIG. 63)) is reported as “visibly reduced; also recorded: inhibited”. The organoid volume ([1]; 3 μM JTE-151 and 0.05 nM gemcitabine combination (FIG. 63)) was “visibly reduced; also recorded: inhibited”, the organoid growth ([1]; JTE-151 alone at 0.3 μM, 1 μM, and 3 μM (FIG. 64)) was “significant inhibition” and the organoid growth ([2]; JTE-151 at 0.3 μM and more so at 3 μM, PDX1356, PDX1535, PDX202, PDX204 (FIG. 68)) was “significantly inhibited”. For the same molecule, the “EpCam+ tumor epithelial cells” value ([3]; JTE-151 90 mg/kg once per day) was “trend of decreased”, the “EpCam+/CD133+ tumor stem cells” value ([3]; JTE-151 90 mg/kg once per day) was “trend of decreased” and the total cell counts ([3]; JTE-151 90 mg/kg once per day) was “trend of decreased”. For the same molecule, the tumor mass ([3]; JTE-151 90 mg/kg once per day) was “trend of decreased”, the tumor growth rate ([3]; JTE-151 90 mg/kg once per day (FIG. 77)) was “slower” and the “EpCam+ tumor epithelial cells” value [4, 9] was “decrease in EpCam+ tumor epithelial cells was statistically significant”. The cell number [4, 9] was “reduced”, the “EpCam+ tumor epithelial cells” value [4, 10] was “loss” and the cell number [4, 10] was “reduced”. The “EpCam+ tumor epithelial cells” value [4, 11] was “decreased”, the “EpCam+/CD133+ tumor stem cells” value [4, 11] was “decreased” and the “change of cell number in the tumor” value ([4]; 120 mg/kg JTE-151 regimen, mice that responded) was “varied”. The tumor mass ([4]; JTE-151 at 90 mg/kg (FIG. 58)) was “significantly reduced”, the “EpCam+ tumor epithelial cells” value [4, 12] was “loss” and the cell number [4, 12] was “reduced”.
`OC(c1ccc(-c2ccc(CN3CCN(Cc4ccncc4)CC3)cc2)c(F)c1)(C(F)(F)F)C(F)(F)F` [SR2211] was tested, and the organoid formation (KP^f/fC organoids; SR2211 vs vehicle) was “decreased”.
